Test results published in patent publication US20080004290A1, “Anti-Cancer Agents” (THE UNIVERSITY OF QUEENSLAND, priority 2003, published 2008).
Read-outs that look alike come from different tables or passages of the source.

What was measured:
Type in all cases: cell-based, human
[1] = test system: NFF, neonatal foreskin fibroblasts; assay: Cell survival assay (clonogenic survival, SRB), normal cells; settings: Homo sapiens, Fibroblast, NFF normal fibroblasts; 24 h with compound, further 72 h growth, SRB; read-out: IC50 (uM) NFF
Procedure, shortened: (§1)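 Cells (5×10^3/well, RPMI 1640 with 10% FCS) treated 24 h with compound at 0.01-10 μg/mL, then washed and grown 72 h drug-free at 37 °C, 5% CO2. Survival read by SRB staining after methylated-spirit fixation, absorbance 564 nm.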

MM96L melanoma cells = assay: Cell survival assay (clonogenic survival, SRB); settings: for IC50: Homo sapiens, MM96L; for SI (Selectivity Index = IC50 (NFF)/IC50 (MM96L)): NFF vs MM96L; for Selectivity Index MM96L: Table 13, S enantiomer, IC50(NFF)/IC50(cancer cell line)
Procedure, shortened: as §1

[2] = test system: CI-80-13S ovarian cancer cells; assay: Cell survival assay (SRB); settings: for IC50: Homo sapiens, read-out: Cytoselectivities (nM) CI80-13S; for Selectivity Index CI80-13S: Table 13, S enantiomer, IC50(NFF)/IC50(cancer cell line)
Experimental: (§2) Cell Lines and Culture Medium. All cell lines used in this study have been described previously (Parsons et al., 1986; Todaro et al., 1980; Glenn et al., 2004). All cell lines were cultured in 10% heat-inactivated foetal calf serum (CSL, Australia) in RPMI 1640 medium supplemented with 100 U/mL penicillin, 100 μg/mL streptomycin, and 3 mM HEPES at 5% CO2, 99% humidity at 37° C. Primary human fibroblasts were obtained from neonatal foreskins and cultured in the above medium. Routine mycoplasma tests were performed using Hoechst stain^i and were always negative.
(§3) Cell Survival Assay. Cells were plated into 96-well microtitre plates at 5×10^3 cells/well, and allowed to adhere overnight. Test compounds were added to culture medium at the indicated concentrations, and plates incubated in the above conditions for 24 hours. Following this incubation period, compounds and media were removed, and replaced with fresh culture medium. Cells were then grown for a further 72 hours before assay using sulforhodamine B (SRB; Sigma, St. Louis, Mo.) as previously described. Briefly, the culture medium was removed from the 96-well microtitre plates and the plates washed twice with phosphate buffered saline (PBS), before the cells were fixed with methylated spirits for 15 minutes. The plates were then rinsed with tap water and the fixed cells stained with 50 μL/well of SRB solution (0.4% sulforhodamine B (w/v) in 1% (v/v) acetic acid) over a period of 1 hour. The SRB solution was then removed from the wells and the plates rapidly washed two times with 1% (v/v) acetic acid. Protein bound dye was then solubilised with the addition of 100 μL of 10 mM unbuffered Tris, and incubated for 15 min at 25° C. Plates were then read at 564 nm on a VERSA max tunable microplate reader (Molecular Devices, Sunnyvale, Calif.).
(§4) For comparison their results are also shown for MM96L and NFF cell lines.

[3] = test system: DU145 prostate cancer cells; assay: Cell survival assay (SRB); settings: for IC50: Homo sapiens, DU-145, DU145 (prostate), read-out: Cytoselectivities (nM) DU145; for Selectivity Index DU145: Table 13, S enantiomer, IC50(NFF)/IC50(cancer cell line)
Experimental: as §2, §3, §4

JAM ovarian cancer cells = assay: Cell survival assay (SRB); settings: for IC50: Homo sapiens, read-out: Cytoselectivities (nM) JAM; for Selectivity Index JAM: Table 13, S enantiomer, IC50(NFF)/IC50(cancer cell line)
Experimental: as §2, §3, §4

[4] = test system: MCF-7 breast cancer cells; assay: Cell survival assay (SRB); settings: for IC50: Homo sapiens, MCF7, MCF-7 (breast), read-out: Cytoselectivities (nM) MCF-7; for Selectivity Index MCF-7: Table 13, S enantiomer, IC50(NFF)/IC50(cancer cell line)
Experimental: as §2, §3, §4

SkMel28 melanoma cells = assay: Cell survival assay (SRB); settings: for IC50: Homo sapiens, SK-MEL-28 (melanoma), read-out: Cytoselectivities (nM) SK-MEL-28; for Selectivity Index SK-MEL-28: Table 13, S enantiomer, IC50(NFF)/IC50(cancer cell line)
Experimental: as §2, §3, §4

A549 cells = assay: Cell survival assay (SRB); settings: for IC50: Homo sapiens, A549 (lung), read-out: Cytoselectivities (nM) A549; for Selectivity Index A549: Table 13, S enantiomer, IC50(NFF)/IC50(cancer cell line)
Experimental: as §2, §3

Col208 cells = assay: Cell survival assay (SRB); settings: for IC50: Homo sapiens, Col208 (colon), read-out: Cytoselectivities (nM) Col208; for Selectivity Index Col208: Table 13, S enantiomer, IC50(NFF)/IC50(cancer cell line)
Experimental: as §2, §3

H520 cells = assay: Cell survival assay (SRB); settings: for IC50: Homo sapiens, NCI-H520, read-out: Cytoselectivities (nM) H520; for Selectivity Index H520: Table 13, S enantiomer, IC50(NFF)/IC50(cancer cell line)
Experimental: as §2, §3

HOP62 cells = assay: Cell survival assay (SRB); settings: for IC50: Homo sapiens, HOP-62, HOP62 (lung), read-out: Cytoselectivities (nM) HOP62; for Selectivity Index HOP62: Table 13, S enantiomer, IC50(NFF)/IC50(cancer cell line)
Experimental: as §2, §3

HT29 cells = assay: Cell survival assay (SRB); settings: for IC50: Homo sapiens, HT-29, HT29 (colon), read-out: Cytoselectivities (nM) HT29; for Selectivity Index HT29: Table 13, S enantiomer, IC50(NFF)/IC50(cancer cell line)
Experimental: as §2, §3

PC-3 cells = assay: Cell survival assay (SRB); settings: for IC50: Homo sapiens, PC-3, read-out: Cytoselectivities (nM) PC-3; for Selectivity Index PC-3: Table 13, S enantiomer, IC50(NFF)/IC50(cancer cell line)
Experimental: as §2, §3

SK-MEL-5 cells = assay: Cell survival assay (SRB); settings: for IC50: Homo sapiens, SK-MEL-5, read-out: Cytoselectivities (nM) SK-MEL-5; for Selectivity Index SK-MEL-5: Table 13, S enantiomer, IC50(NFF)/IC50(cancer cell line)
Experimental: as §2, §3

T-47D cells = assay: Cell survival assay (SRB); settings: for IC50: Homo sapiens, T47D, read-out: Cytoselectivities (nM) T-47D; for Selectivity Index T-47D: Table 13, S enantiomer, IC50(NFF)/IC50(cancer cell line)
Experimental: as §2, §3

[5] = MM96L melanoma, 24 h with compound, further 72 h growth, SRB, read-out: IC50 (uM) MM96L
[6] = Table 12, read-out: Cytoselectivities (nM) MM96L

| Compound | IC50 [1] | IC50 (MM96L melanoma cells; [5]) | IC50 (MM96L melanoma cells; [6]) | SI (Selectivity Index = IC50 (NFF)/IC50 (MM96L)) (MM96L melanoma cells) | Selectivity Index MM96L (MM96L melanoma cells) | IC50 [2] | Selectivity Index CI80-13S [2] | IC50 [3] | Selectivity Index DU145 [3] | IC50 (JAM ovarian cancer cells) | Selectivity Index JAM (JAM ovarian cancer cells) | IC50 [4] | Selectivity Index MCF-7 [4] | IC50 (SkMel28 melanoma cells) | Selectivity Index SK-MEL-28 (SkMel28 melanoma cells) | IC50 (A549 cells) | Selectivity Index A549 (A549 cells) | IC50 (Col208 cells) | Selectivity Index Col208 (Col208 cells) | IC50 (H520 cells) | also measured |
| --- | --- | --- | --- | --- | --- | --- | --- | --- | --- | --- | --- | --- | --- | --- | --- | --- | --- | --- | --- | --- | --- |
| O=C(CCCCC[C@H](NC(=O)OCc1ccccc1)C(=O)Nc1cccc2cccnc12)NO [Example 148] | 0.452 µM | 0.043 µM | 0.108 µM | 10.5 | 4 | 124 nM | 4 | 131 nM | 3 | 194 nM | 2 | 122 nM | 4 | 146 nM | 3 | 248 nM | 2 | 122 nM | 4 | 118 nM | IC50 (MM96L melanoma cells; most preferred compounds, exemplary examples, read-out: potency of IC50 against the MM96 melanoma cells): ≤ 0.5 µM; Selectivity Index H520 (H520 cells): 4; IC50 (HOP62 cells): 226 nM; Selectivity Index HOP62 (HOP62 cells): 2; IC50 (HT29 cells): 334 nM; Selectivity Index HT29 (HT29 cells): 1.4; IC50 (PC-3 cells): 528 nM; Selectivity Index PC-3 (PC-3 cells): 0.9; IC50 (SK-MEL-5 cells): 70 nM; Selectivity Index SK-MEL-5 (SK-MEL-5 cells): 6; IC50 (T-47D cells): 93 nM; Selectivity Index T-47D (T-47D cells): 5 |
| CC(C)COC(=O)N[C@@H](CCCCCC(=O)NO)C(=O)Nc1cccc2cccnc12 [Example 149] | 0.081 µM | 0.023 µM | 0.116 µM | 3.5 | 0.7 | 149 nM | 0.5 | 130 nM | 0.6 | 221 nM | 0.4 | 138 nM | 0.6 | 170 nM | 0.5 | 291 nM | 0.3 | 395 nM | 0.2 | 129 nM | Selectivity Index H520 (H520 cells): 0.6; IC50 (HOP62 cells): 267 nM; Selectivity Index HOP62 (HOP62 cells): 0.3; IC50 (HT29 cells): 360 nM; Selectivity Index HT29 (HT29 cells): 0.2; IC50 (PC-3 cells): 651 nM; Selectivity Index PC-3 (PC-3 cells): 0.1; IC50 (SK-MEL-5 cells): 100 nM; Selectivity Index SK-MEL-5 (SK-MEL-5 cells): 0.8; IC50 (T-47D cells): 198 nM; Selectivity Index T-47D (T-47D cells): 0.4 |
| O=C(CCCCC[C@H](NC(=O)c1ccc(Br)cc1)C(=O)Nc1ccc(-c2ccccc2)cc1)NO [Example 161] | 0.185 µM | 0.074 µM | 0.121 µM | 2.5 | 1.5 | 158 nM | 1.2 | 149 nM | 1.2 | 182 nM | 1.0 | 149 nM | 1.2 | 168 nM | 1.1 | 335 nM | 0.6 | 272 nM | 0.6 | 117 nM | Selectivity Index H520 (H520 cells): 1.6; IC50 (HOP62 cells): 261 nM; Selectivity Index HOP62 (HOP62 cells): 0.7; IC50 (HT29 cells): 307 nM; Selectivity Index HT29 (HT29 cells): 0.6; IC50 (PC-3 cells): 531 nM; Selectivity Index PC-3 (PC-3 cells): 0.3; IC50 (SK-MEL-5 cells): 102 nM; Selectivity Index SK-MEL-5 (SK-MEL-5 cells): 1.8; IC50 (T-47D cells): 197 nM; Selectivity Index T-47D (T-47D cells): 0.9 |
